Series [1] is classed as physicochemical. The procedure:
The reaction vial was crimp-sealed and heated at 100° C. for 5 min. […] The sample was stored in an autosampler in which the temperature is ˜6° C. […] than room temperature, and analyzed by RP-HPLC for up to 24 hours.
L-Selenomethionine: ^177Lu-B was prepared, diluted and analyzed as described above, but 5 mg of L-Se-Met was used in place of PDTC, the heating time was 10 minutes, and the quantity of radioactivity used was 52 mCi.
L-cysteine ethyl ester, HCl: ^177Lu-B was prepared, diluted and analyzed as described above, but 5 mg of L-CEE, hydrochloride salt was used in place of PDTC, the heating time was 5 minutes and the quantity of radioactivity used was 50 mCi.
L-cysteine HCl.H2O: ^177Lu-B was prepared, diluted and analyzed as described above, but 5 mg of L-Cys HCl.H2O was used in place of PDTC, the heating time was 8 minutes and the quantity of radioactivity used was 53 mCi.

Series [2] is classed as physicochemical. The procedure:
(§1) The injection volume was 20 μL.
Each stabilizer was prepared at a concentration of 5 mg/mL in sodium acetate (NaOAc) buffer (0.2 M, pH 4.8). To lead-shielded 4-mL vials were added 200 μL of the individual stabilizer solutions, 3.55 mCi ^177LuCl3 (avg) and 5.44 μg COMPOUND A (dissolved in water). A second set of replicates of each sample was prepared, using the individual stabilizers. To these was added 4.37 mCi ^177LuCl3 (avg) and 6.7 μg (avg) COMPOUND A (dissolved in water). The ratio of COMPOUND A to lutetium was 3:1 for all samples. The reaction mixture was heated to 100° C. for 5 minutes then cooled for 5 minutes in an ambient-temperature water bath. To each sample, 10 μL of 2% Na2EDTA.2H2O in water was added, then each was analyzed by HPLC (Method 1 for the first set of replicates; Method 2 for the second set of replicates). The second set of replicates were stored and analyzed again at t=24 h.
This is another data set of the same source.

Series [3] can be described thus: Labeling efficiency and stability of ^111In-B with selenomethionine 2.5 mg/mL (Example 21). Type of series: physicochemical. As for the experimental part: A solution of L-selenomethionine (20 mg/mL) was prepared by dissolving it in NaOAc buffer (0.2 M, pH 4.0). To a lead-shielded 2-mL vial was added 111 μL of NaOAc buffer (0.2 M, pH 4.0), 25 μL selenomethionine solution (0.5 mg of Se-Met), 4 μL of COMPOUND B (20 μg in 0.01 N HCl) and 1.0 mCi ^111InCl3 in 60 μL of 0.05 N HCl. A control reaction was run containing all reagents above, but substituting NaOAc buffer for the Se-Met solution. The reaction mixtures were heated at 100° C. for 15 minutes, and then cooled for 1 minute in an ambient-temperature water bath. To each sample, 200 μL of stabilizing solution (0.2% HSA, 5% ascorbic acid, 0.9% benzyl alcohol, 20 mM Se-Met in 50 mM citrate buffer, pH 5.3) and 2 μL of 1% Na2EDTA.2H2O in water were added, and then each was analyzed stored at room temperature for up to 6 hours and analyzed by HPLC as described below. HPLC conditions: Vydac C18 column, 4.6×250 mm, 5 μM, 1.5 mL/min flow rate at 30° C. Solvent A: 0.1% TFA in water; Solvent B: 0.085% TFA in acetonitrile. Gradient: 80% A/20% B isocratic for 20 min, ramp up to 40% A/60% B in 5 min, hold for 5 mm, return to 80% A/20% B in 5 min.

The format of series [4] is physicochemical. The conditions noted are these: ^177Lu-A (3.6 mCi) prepared in presence of 2.5 mg/mL stabilizer. The procedure:
To lead-shielded 4-mL vials was added 200 μL of the individual NaOAc-stabilizer solutions, 3.58 mCi ^177LuCl3 (avg) and 5.08 μg COMPOUND A (dissolved in water). The ratio of COMPOUND A to Lutetium was 3:1 for all samples. The reaction mixtures were heated to 100° C. for 5 minutes, then cooled, treated with Na2EDTA.2H2O, subdivided and stored as described in Example 9. The radiochemical purity (RCP) percentage data obtained are listed Table 12.

Series [5] is described as follows: Radiostability (RCP, Met═O by HPLC) of preformed ^177Lu-A with individual amino acids added (Example 1). The class given is physicochemical. As to conditions: amino acid 6.6 mg/mL, room temperature. The procedure:
as §1
Solutions of the individual amino acids L-Methionine, L-Selenomethionine, L-cysteine HCl.H2O, L-Tryptophan, L-Histidine, and Glycine were prepared at a concentration of 10 mg/mL in 10 mM Dulbecco's phosphate-buffered saline, pH 7.0 [PBS].
The final radioactive concentration of each sample was ˜20 mCi/mL.

The format of series [6] is physicochemical. As to conditions: ^177Lu-A (2.7-3.7 mCi) prepared in presence of 1 mg/mL stabilizer. As for the experimental part: The injection volume was 10 μL.
Each individual stabilizer was prepared at a concentration of 1 mg/mL in sodium acetate (NaOAc) buffer (0.2 M, pH 4.8). […] The reaction mixture was heated to 100° C. for 5 minutes, and then cooled for 5 minutes in an ambient-temperature water hath. To each sample, 10 μL of 2% Na2EDTA.2H2in water was added, and then each was divided into two 100-μL aliquots. One aliquot was analyzed by HPLC (Method 5) and then stored at room temperature in a sealed lead container for 24 hours. The other aliquot was stored frozen (−10° C.) for 24 hours. Each sample was analyzed at t=24 h.

Series [7] is classed as physicochemical. The conditions noted are these: Radiolysis Protecting Solution containing L-selenomethionine, room temperature. As for the experimental part:
^177Lu-A and ^177Lu-B were prepared at a 50 mCi level as described in EXAMPLE 4. Immediately after cooling the reaction mixtures to room temperature, 1 mL of a Radiolysis Protecting solution was added, containing 10 mg/mL gentisic acid; 50 mg/mL ascorbic acid sodium salt; 2 mg/mL HSA; 3.92 mg/mL L-selenomethionine, 0.9% (v:v) benzyl alcohol and 1 mg/mL of Na2EDTA.2H2O in 0.05 M, pH 5.3 citrate buffer. The reaction vials were stored in the autosampler chamber and the stability was analysed by RP-HPLC over time using HPLC Methods 3 [^177Lu-A] or 4 [^177Lu-B].

The format of series [8] is physicochemical. The conditions noted are these: 50 mCi/2 mL in Radiolysis Protecting Solution containing L-methionine, room temperature. As for the experimental part: as §1
A Radiolysis Protecting Solution was prepared to contain 10 mg/mL gentisic acid; 50 mg/mL ascorbic acid sodium salt; 2 mg/mL HSA; 2.98 mg/mL L-methionine, 0.9% (v:v) benzyl alcohol and 1 mg/mL of Na2EDTA.2H2O in 0.05 M, pH 5.3 citrate buffer. […] The mixture was incubated at 100° C. for 5 min, and then cooled to room temperature with a water bath. A 1-mL aliquot of the Radiolysis Protecting Solution was immediately added. The reaction vial was stored in an autosampler chamber and the stability was analyzed by Reversed Phase HPLC over time, using HPLC Methods 3 and 4. The results obtained for ^177Lu-B are shown in the chromatograms in FIG. 9.

Series [9] is classed as physicochemical. The procedure: The reaction vial was crimp-sealed and heated at 100° C. for 10 min. […] The sample was stored in an autosampler in which the temperature is ˜6° C. […] than room temperature, and analyzed by RP-HPLC for up to 120 hours.
This is another data set of the same source.

Series [10] in a line: Stability in Radiolysis Protecting Solution containing methionine (FIG. 4 and similar study). Type of series: physicochemical. The conditions noted are these: 104 mCi, diluted 1:1 with radiolysis protecting solution (2 mg/mL DL-methionine) added after complex formation, room temperature. As for the experimental part: Formulations stabilized by such cocktails maintained excellent radiochemical purity (RCP) values (>95% RCP) for as long as 5 days at room temperature. This stabilizing cocktail is added immediately after formation of the radioactive complex, so would be the second vial of a two-vial kit.

Read-outs that look alike come from different tables or passages of the source.

Take `C[Se]CC[C@H](N)C(=O)O` [L-Selenomethionine]: the “(% RCP) 3-h” value in series [1] (^177Lu-B (44-53 mCi) formulated with 5 mg stabilizing compound, 3 h) is on record as 94.6%. Moreover, the “(% RCP) 6-h” value in series [1] (^177Lu-B (44-53 mCi) formulated with 5 mg stabilizing compound, 6 h) is listed as 94.4%. Further, the “(% RCP) 9-h” value in [1] (^177Lu-B (44-53 mCi) formulated with 5 mg stabilizing compound, 9 h) turned out to be 93.3%. Besides, the “(% RCP) 12-h” value in [1] (^177Lu-B (44-53 mCi) formulated with 5 mg stabilizing compound, 12 h) came out at 92.6%. Further, in series [1] (^177Lu-B (44-53 mCi) formulated with 5 mg stabilizing compound, 24 h), the “(% RCP) 24-h” value is listed as 90.6%. The “(% RCP) 0-h” value in [1] (^177Lu-B (44-53 mCi) formulated with 5 mg stabilizing compound, diluted to ~2 mL, ~6° C. above room temperature, 0 h) was determined as 95.0%. Also, in [1] (^177Lu-B formulated with 5 mg stabilizing compound, 0 to 24 h), the “RCP Drop over 24 hr” value is given as 4.4%. In addition, in [2] (^177Lu-A (3.55 mCi avg) prepared in presence of 5 mg/mL stabilizer, HPLC Method 1, t = 0 h), the “Replicate 1 RCP % t = 0 h” value is listed as 57.5%. Moreover, the “Replicate 2 RCP % t = 0 h” value in series [2] (^177Lu-A (4.37 mCi avg) prepared in presence of 5 mg/mL stabilizer, HPLC Method 2, t = 0 h) was 60.6%. For the same compound, the “Replicate 2 RCP % t = 24 h” value in [2] (^177Lu-A (4.37 mCi avg) prepared in presence of 5 mg/mL stabilizer, HPLC Method 2, t = 24 h) was determined as 57.1%. Besides, the “RCP, % t = 0” value in [3] (^111In-B (1.0 mCi) prepared in presence of selenomethionine 2.5 mg/mL, stabilizing solution added after, t = 0) is listed as 98.3%. The “RCP, % t = 6 h” value in series [3] (^111In-B prepared in presence of selenomethionine 2.5 mg/mL, room temperature, 6 h) was 96.6%. Further, the entries for the “RCP % t = 24 h (frozen)” value in [4] (24 h frozen) and in series [6] (24 h frozen (−10° C.)) were 94.7% and 99.2%, respectively. Further, the “RCP % t = 24 h (room temp)” value worked out at 95.6% in series [4] (24 h room temp) and 100% in [6] (24 h room temp). Besides, the “RCP % t = 0 h” value in series [4] (t = 0 h) was 95.7%; in series [6] (t = 0 h), 100%. Moreover, the “0-1 h RCP (%)” value in series [5] (^177Lu-A ~20 mCi/mL (3.5 mCi total), 0-1 h) amounted to 100%. Further, the “24-h RCP (%)” value in series [5] (^177Lu-A ~20 mCi/mL, 24 h) is listed as 99.1%. Moreover, the “48-h RCP (%)” value in [5] (^177Lu-A ~20 mCi/mL, 48 h) is 99.9%.

As to “^177Lu-B: the ^177Lu complex of DOTA-Gly-Abz4-Gln-Trp-Ala-Val-Gly-His-Leu-Met-NH2”, the “% RCP 0-d” value is on record as 95.8% in [7] (50 mCi level, 0 d) and 99.8% in series [8] (0 d). The “% RCP 1-d” value in [7] (1 d) is on record as 95.7%; in series [8] (1 d) it was 99.3%. The “% RCP 2-d” value in series [7] (2 d) amounted to 96.2%; in series [8] (2 d) it was 99.6%. Also, the “% RCP 3-d” value in [7] (3 d) is recorded as 96.7%. The “% RCP 5-d” value in [7] (5 d) is recorded as 98.4%; in series [8] (5 d), 99.8%. Besides, the “RCP (%)” value stood at 99.5% in [9] (110.5 mCi, prepared with L-selenomethionine 2.94 mg/mL, then 4 mL saline with sodium ascorbate 50 mg/mL and benzyl alcohol, 0 hours post-reconstitution); 99.8% in series [9] (L-selenomethionine 2.94 mg/mL plus ascorbate/benzyl alcohol saline, 120 (5 days) hours post-reconstitution); 99.6% in [9] (L-selenomethionine 2.94 mg/mL plus ascorbate/benzyl alcohol saline, 2 hours post-reconstitution); 99.5% in series [9] (L-selenomethionine 2.94 mg/mL plus ascorbate/benzyl alcohol saline, 3 hours post-reconstitution); 99.0% in [9] (L-selenomethionine 2.94 mg/mL plus ascorbate/benzyl alcohol saline, 6 hours post-reconstitution); 99.4% in series [9] (L-selenomethionine 2.94 mg/mL plus ascorbate/benzyl alcohol saline, 9 hours post-reconstitution). For the same compound, the “RCP (%)” value was found to be 99.2% in series [9] (L-selenomethionine 2.94 mg/mL plus ascorbate/benzyl alcohol saline, 12 hours post-reconstitution) and 99.4% in [9] (L-selenomethionine 2.94 mg/mL plus ascorbate/benzyl alcohol saline, 24 hours post-reconstitution). In addition, the “RCP for 5 days” value in series [10] was greater than 99%.

The values are drawn from US20120065365A1, “Stable Radiopharmaceutical Compositions and Methods for Their Preparation” (BRACCO IMAGING S.P.A., priority 2003, published 2012).
